The values below are quoted from earlier work in patent US10918652B2, “Compositions for the treatment of dermatological diseases and disorders” (CLARIDEI LABORATORIES, INC., priority 2014, dated 2021).

One may read the pKa as the pH at which an ionisable group is half protonated.

For the data set the following is noted: cited from Ramachandran et al. 2006.

With `O=C(O)[C@H](O)[C@@H](O)[C@H](O)[C@H](O)CO` [Gluconic acid], the pKa is reported as 3.7.
